Data as given in article PMC4014123 (Acta Crystallographica Section D: Biological Crystallography, 2014).
“Also recorded” adds a separate entry of the source. Like-named read-outs stand apart in the source and are kept apart here.

Biological target: Cp-NanI (Clostridium perfringens, UniProt A0A0H2YQR1)
Experiment: biochemical

Cp-NanI, sequence (A0A0H2YQR1 243-694 limits assumed): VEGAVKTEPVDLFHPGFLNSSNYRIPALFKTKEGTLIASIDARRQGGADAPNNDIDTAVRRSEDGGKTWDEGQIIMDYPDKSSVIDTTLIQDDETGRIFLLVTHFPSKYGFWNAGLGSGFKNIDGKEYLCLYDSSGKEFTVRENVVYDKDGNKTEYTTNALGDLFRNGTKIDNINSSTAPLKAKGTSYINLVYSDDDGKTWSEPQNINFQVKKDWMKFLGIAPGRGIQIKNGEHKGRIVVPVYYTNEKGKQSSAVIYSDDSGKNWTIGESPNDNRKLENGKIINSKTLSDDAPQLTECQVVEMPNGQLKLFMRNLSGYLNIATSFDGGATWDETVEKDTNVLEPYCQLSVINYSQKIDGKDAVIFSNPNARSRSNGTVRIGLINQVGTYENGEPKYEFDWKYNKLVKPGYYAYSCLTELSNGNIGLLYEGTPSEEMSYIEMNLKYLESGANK

“6-[(2E)-3,7-dimethylocta-2,6-dienyl]-5,7-dihydroxy-2-(3-hydroxy-4-methoxyphenyl)-2,3-dihydrochromen-4-one [3′-O-Methyldiplacone]” was tested, and the IC50 (pH 5, read-out: IC50) was 14.3 µM.

With O=C1C[C@@H](c2ccc(O)c(O)c2)Oc2cc(O)cc(O)c21 [Eriodictyol, (2S)-2-(3,4-dihydroxyphenyl)-5,7-dihydroxy-4-chroman-one, reference compound] the IC50 was 16.4 µM.

With COc1ccc(C2CC(=O)c3c(cc(O)c(C/C=C(\C)CCC=C(C)C)c3O)O2)cc1O (stereo not shown) [4′-O-Methyldiplacone, 6-[(2E)-3,7-dimethylocta-2,6-dienyl]-5,7-dihydroxy-2-(3-hydroxy-4-methoxyphenyl)-2,3-dihydrochromen-4-one] the IC50 was 12.9 µM.

CC(C)=CCC/C(C)=C/Cc1c(O)cc2c(c1O)C(=O)CC(c1ccc(O)c(O)c1)O2 (stereo not shown) [Diplacone, 2-(3,4-dihydroxyphenyl)-6-[(2E)-3,7-dimethylocta-2,6-dienyl]-5,7-dihydroxy-2,3-dihydrochromen-4-one] was tested, and the IC50 was 0.11 µM, the “inhibition kinetics / mechanism” value was “competitive kinetics; also recorded: time-dependent inhibitor” and the “k 5” value was 0.201 ± 0.003 min⁻¹. The “k 6” value was 0.0017 ± 0.004 min⁻¹, the Ki (K i) was 0.04 µM and the Ki (K i ^app) was 0.065 ± 0.008 µM.

Work on CC(C)=CCC/C(C)=C/Cc1c(O)cc2c(c1O)C(=O)C[C@@H](c1ccc(O)cc1)O2 [Mimulone, (2S)-6-[(2E)-3,7-dimethylocta-2,6-dienyl]-5,7-dihydroxy-2-(4-hydroxyphenyl)-2,3-dihydrochromen-4-one] yielded an IC50 of 6.1 µM.
